The record followed here is US20070037202A1, “Potentiation of cancer therapies by ZNF217 inhibition” (Regents of the University of California, priority 2002, published 2007).

The structures appear in SMILES notation.

Test [1] concerns 184 HMEC and ZNF217 immortalized HMEC. The test can be described thus: Doxorubicin induced cell death in ZNF217 transduced versus parental HMEC. Particulars: 100 ng/ml doxorubicin; p=0.0146. The format is cell-based. The text has this:
In order to determine if ZNF217 could confer resistance to doxorubicin on primary mammary epithelial cells, the sensitivity of HMECs which had been previously immortalized by a ZNF217-HA expression construct (Nonet, G. H. et al., 2001, supra) were compared to parental 184 HMECs with finite life span. […] Thus, as well as promoting HMEC immortalization, ZNF217 expression protects HMEC against doxorubicin-induced apoptosis.

In test [2] the test system is MCF7, 600MPE and HBL100 breast cancer cell lines. The test can be described thus: Sensitivity of breast cancer cell lines to doxorubicin (cell death).
The next test deals with HBL100 cells. The test can be described thus: Apoptosis assay, annexin V staining. The format is cell-based, human. Particulars: for annexin staining: HBL100. How it is done: (§1) 1.5×10^5 of Hela cells, ZNF217-GFP transfected HeLa cells, HBL100 cells and ZNF217-GFP transfected HBL100 cells were set up in six well plates and cultured as described above. One the second day, the cells were treated with 100 ng/ml doxirubicin for 16 hours. The cell culture supernatants and cells were collected and washed twice with PBS, resuspended in 100 μl of binding buffer (10 mM HEPS, 140 mM NaCl and 2.5 mM CaCl2, pH 7.4). 5 μl of Annexin V antibody (Alexa Fluor 633 from Molecular Probes) was added and the cells were incubated at room temperature for 15 minutes. After the incubation, 400 μl of binding buffer were added and cell samples were analyzed by flow cytometry. A 633-nm wavelength laser was used to measure the apoptotic cell population. For imaging 1.5×10^4 cells were seeded in 4 well cover glass slides (Fisher). Doxorubicin treating cells 16 hours later, the cells were washed with PBS twice and 200 μl of binding buffer were added, staining process was as same as above and in the meantime, 0.5 μM of DAPI were added to satin the cell nucleus. After staining, the cells were washed twice again with PBS, 400 μl of Binding buffer were added. The apoptotic cells were imaged in Seize con-focal image system.

Test [3] relates to HBL100 cells transfected with ZNF217-EGFP. Kind of test: Apoptosis assay, annexin V staining. In kind it is cell-based, human. Particulars: for annexin staining: ZNF217-EGFP transfected HBL100. On the procedure:
as §1
ZNF217 silencing RNA (siRNA) constructs were introduced into HBL100 cells transfected with znf217 and the cells were subsequently treated with Doxorubicin.
The siRNA Dicer Generation kit from Gene Therapy System was used to generate a series of siRNAs. Approximately 30 different 22 bp siRNA sequences were generated, using the following primers: […]

[4] abbreviates: increasing concentrations, in combination with doxorubicin.
Setting [5] is: not also treated with doxorubicin.

As for `COc1cccc2c1C(=O)c1c(O)c3c(c(O)c1C2=O)C[C@@](O)(C(=O)CO)C[C@@H]3O[C@H]1C[C@H](N)[C@H](O)[C@H](C)O1` [doxorubicin], in test [1], the “less cell death in ZNF217 transduced cells than in control non-transduced 184 HMEC” value turned out to be 2.5 fold. The “cell death upon exposure to doxorubicin” value in test [2] (HBL100 compared with MCF7 and 600MPE) was “higher levels of cell death”. In addition, the “resistance to doxorubicin of cell lines with high relative ZNF217 expression versus HBL100” value in test [2] (MCF7 and 600MPE versus HBL100, all wild type TP53) is listed as “three to five-fold more resistant”. The “cells stained with annexin” value is reported as “About 80%” in the test with HBL100 cells (control HBL100 cells, doxorubicin treatment) and “Less than 40%” in test [3] (ZNF217 transfected HBL100, doxorubicin treatment).
For `CN1N=C(N)c2cn([C@@H]3O[C@H](COP(=O)(O)O)[C@@H](O)[C@H]3O)c3ncnc1c23` [triciribine phosphate], the annexin staining entry in the test on HBL100 cells (setting [4]) is listed as “increased annexin staining”; with HBL100 cells (setting [5]), “did not display significant staining”; in test [3] (setting [4]) it was “increased annexin staining”; in test [3] (setting [5]) it was “did not display significant staining”. Further, the cell death result is “increased cell death” in the test on HBL100 cells (HBL100 not transfected (FIG. 11), increasing concentrations, in combination with Doxorubicon) and “increased cell death” in test [3] (HBL100 transfected with ZNF217-encoding constructs (FIG. 12), increasing concentrations, in combination with Doxorubicon).
